Patent US20220184037A1, “PHARMACEUTICAL AGENTS TARGETING CANCER STEM CELLS” (THE JOHNS HOPKINS UNIVERSITY, priority 2020, published 2022)

How the values were obtained:
[1] = system: BFTC 905 cells; test: MTT assay, sensitivity to erlotinib (IC50); format: cell-based, human; settings: BFTC 905 cells harboring an NRAS mutation, 72 hours
Experimental: (§1) Embryonic kidney cell line 293, SV-40 immortalized normal human urothelial cell line (HUC1), and bladder cancer cell lines 5637, FIT-1376, J82, SCaBER, RT-4, T24, and UM-UC3 were obtained from American. Type Culture Collection (ATCC; Manassas, Va., USA). Mediums were purchased from Mediatech (Manassas, USA) and supplemented with 10% FBS (Hyclone, Logan, USA) under a 5% CO2 atmosphere at 95% relative humidity. HUC-1, T24, and 5637 cells were grown in F-12K, McCoy's 5A, and RPMI 1640 medium, respectively, and all other cells were grown Dulbecco's modified Eagle medium (DMEM). BFTC 905 and BFTC 909 cell lines were established from arsenic-exposed urothelial carcinoma subjects (9) and obtained from the German Collection of Microorganisms and Cell Cultures (Braunschweig, Germany). Re-authentification of cells was performed using PowerPlex 16 HS for short tandem repeats analysis at Genetic resource core facility, the Johns Hopkins University School of Medicine, Institute of Genetic Medicine, and all cell lines have been confirmed as authentic. To prepare in vitro arsenic model, we chronically exposed HUC1 cells to 1 μM arsenic trioxide, as described previously (10) and arsenic-exposed (As) cells and passage-matched arsenic un-exposed control (UE) cells were stock for each months until 12 months. […]
(§2) The cell proliferative and viability activity were measured using the 3-(4,5-dimethyl thiazol-2-yl)-2,5-diphenyltetrazolium bromide (MTT) Proliferation Assay Kit (ATCC; Manassas, Va., USA) according to the manufacturer's protocol. […] Spectrophotometric readings (570 nm-650 nm) were obtained on a Spectra Max 250 96-well plate reader (Molecular devices, Sunnyvale, USA). […] Cell viability was expressed as the ratio of absorbance values of the treated cells related to the untreated control cells considered as 1.0. The half maximal (50%) inhibitory concentration (IC50) value of drug was calculated by treatment with the various concentration for 72 hours using MTT assay. […]

[2] = system: arsenic exposed (As)-HUC1 cells; test: MTT assay, sensitivity to erlotinib (IC50); format: cell-based, human; settings: 72 hours (FIG. 1H)
Experimental: as §1, §2

[3] = system: basal-type bladder cancer cell lines; test: MTT assay, sensitivity to erlotinib (IC50); format: cell-based, human; settings: 72 hours
Experimental: as §1, §2

[4] = system: xenograft tumors that acquired resistance to erlotinib (5637 cells); test: In vivo therapeutic efficacy in tumors with acquired resistance to erlotinib; design: species or system mice; settings: western blotting (FIG. 7G)
Experimental: For therapeutic efficacy, mice were randomly assigned into experimental groups (five mice per group) when tumors reached a volume of […]. For celecoxib and/or VP treatment, celecoxib (5 mg/kg) was administered via intraperitoneal (i.p.) injection once a day (17), and VP (50 mg/kg) was administered via i.p. every other day (18). EP4 antagonist ONO-AE3-208 (10 mg/kg) was administered via i.p. once a day (19). Control was applied with same volume (10 μL per injection) of 10% dimethyl sulphoxide in 1% TWEEN 80 (Sigma-Aldrich). For GEM and CDDP (GC) treatment (i.p.), CDDP (6 mg/kg) was only applied after the first GEM (60 mg/kg) treatment on day 2, followed by three consecutive treatments of GEM on day 5, 8 and 11 (17). The next cycle was started on day 18, and the treatment was continued until tumor reached 2 cm in diameter. For erlotinib treatment, the mice were treated once a day, 6 days per week, by oral gavage with erlotinib (100 mg/kg) or control (PBS containing 0.5% methyl cellulose (Sigma-Aldrich) and 0.1% TWEEN 80) (20). Tumor size was measured at least every three days. Therapeutic efficacy was assessed using percentage change after treatment related to tumor size before treatment. […]

[5] = system: let-7 host gene MIRLET7BHG promoter; test: Bisulfite sequencing of let-7 host gene promoter methylation; format: cell-based, human; settings: 10 μM celecoxib, 2 μM PGE2, or 5 μM 5-Aza-dC for 5 days
Experimental: Cell pellets were digested with 1% sodium dodecyl sulfate and 50 μg/mL proteinase K (Roche, Nutley, USA) at 48° C. overnight. Isolation of genomic DNA from cell lines was performed with the phenol-chloroform extraction protocol followed by ethanol precipitation. Bisulfite treatment was conducted using an EpiTect Bisulfite K ft (QIAGEN, Valencia, USA), and was subsequently amplified via PCR using primers as shown in the following table. PCR products were purified using the QIAquick Gel Extraction kit (Qiagen), and sequenced by Genewiz DNA sequencing service (Genewiz, South Plainfield, USA). The data were analyzed using the Sequence Scanner v1.0 software (Life technologies). A methylation frequency of ≥50% of total CpG sites within the amplified region was considered “methylation-positive”. For demethylation, cells ([…]) dissolved in 50% acetic acid or were mock-treated with phosphate buffered saline (PBS) including the same amount of acetic acid every 24 hours for 5 days. When combined with the histone deacetylase inhibitor TSA (Sigma), 300 nmol/L TSA was added to the medium for the final 24 hours.

[6] = system: promoters of miR-126, miR-296 and miR-200c; test: Bisulfite sequencing of miRNA promoter methylation; format: cell-based, human; settings: spheroid cells

| Compound | sensitivity to the EGFR inhibitor erlotinib [1] | sensitivity to the EGFR inhibitor erlotinib [2] | sensitivity to the EGFR inhibitor erlotinib [3] | EGFR-MAPK signaling in xenograft tumors [4] | promoter methylation of the let-7 host gene [5] | promoter methylation of miR-126, miR-296, miR-200c [6] |
| --- | --- | --- | --- | --- | --- | --- |
| C#Cc1cccc(Nc2ncnc3cc(OCCOC)c(OCCOC)cc23)c1 [erlotinib, Erlotinib] | resistance | sensitive | sensitive | remained suppressed |  |  |
| Cc1ccc(-c2cc(C(F)(F)F)nn2-c2ccc(S(N)(=O)=O)cc2)cc1 [celecoxib, Celecoxib] |  |  |  |  | demethylated | demethylated |
